The source of these data is US20240116918A1, “SUBSTITUTED TRICYCLIC COMPOUND AS PRMT5 INHIBITOR AND USE THEREOF” (NANJING SANHOME PHARMACEUTICAL CO., LTD., priority 2019, published 2024).

The subject of data set [1] is ex vivo heart. Put plainly: Ex vivo heart experiments, QT interval.
Data set [2] has as its system Z-138 cells. Put plainly: In vitro cell activity, Z-138 cells, CellTiter-Glo. The data set is classed as cell-based. To be noted: Z-138, 168 h, human mantle cell lymphoma cells, 7 days. On the procedure: Test compounds: the compounds of the present invention prepared in the above example. Each compound was formulated into a 10 mM stock solution with DMSO, and finally diluted into 8 concentrations for detection, with the final concentrations being 33333.00 nM, 6666.60 nM, 1333.32 nM, 266.66 nM, 53.33 nM, 10.67 nM, 2.13 nM, and 0.43 nM for experiments in Z-138 cells.
2.1.1 Z-138 cell thawing: The cryovial for Z-138 cells was taken out from a liquid nitrogen tank and placed in a 37° C. water bath, and shaken gently for thawing as soon as possible. After thawing, the cryovial was taken out, and sterilized with an alcohol cotton ball, after which the cap was unscrewed. The cell fluid was drawn and injected into a centrifuge tube. 1 mL of complete medium containing 10% horse serum was added, and mixed uniformly. The tube was placed in a centrifuge, and centrifuged at 1000 rpm for 5 min. Afterwards, the supernatant was discarded, and complete medium was added. The mixture was pipetted repeatedly until the cells were completely dispersed and resuspended. The mixture was inoculated in a petri dish at an appropriate concentration, and cultured in a CO2 incubator at 37° C., 5% CO2, and 95% humidified air.
2.2.1 Z-138 cell culture and passage: The cells grew to about 80-90%. The medium (IMDM medium+10% horse serum+1% penicillin-streptomycin) was transferred to a 15 mL centrifuge tube, and centrifuged at 1000 rpm for 5 min. The supernatant was removed. The cells were resuspended in complete medium, and inoculated in a petri dish at the desired density. The dish was placed in an incubator at 37° C., 5% CO2, and 95% humid air. The culture medium was replenished every 2-3 days or the passage was carried out, depending on the cell growth.
After passage, Z-138 cells were resuspended in complete medium at a density of 1000 cells/well and inoculated in a 96-well culture plate. The 36 wells at the outer circumference of the 96-well plate were filled with 200 μL of PBS to prevent the culture conditions of the inner plate wells from being too different from each other due to the faster evaporation of medium at the edge. The leftmost column of the 60 inner wells were blank wells, which were not added with cells, but filled with equal volume of PBS. The remaining 54 wells were subjected to cell plating with a multichannel pipette, to each well was added 100 μL of culture medium containing corresponding cells. After cell plating was finished, the 96-well plate was tapped to make the cells evenly suspended, and placed in a 5% CO2 incubator and cultured at 37° C. for 24 h.
For Z-138 cells, in addition to the original medium (100 μL), 50 μL (3×) of drug was added, and duplicate wells were set for each concentration group. The plate was placed in a CO2 incubator and further cultured for 7 days. […]
Background: Cellular ATP, detected with luciferase, serves as a proxy for viable cell number.

The term IC50 denotes the concentration that gives 50% inhibition. Read a high IC50 as weaker potency. Consider `CC(=O)N1CCC(Nc2cc3c(cn2)C2(CC2)CN(C[C@H](O)CN2CCc4ccccc4C2)C3=O)CC1` [Example 1, (R)-7′-((1-acetylpiperidin-4-yl)amino)-2′-(3-(3,4-dihydroisoquinolin-2(1H)-yl)-2-hydroxypropyl)-2′,3′-dihydro-1′H-spiro[cyclopropane-1,4′-[2,6]naphthyridin]-1′-one], for which the “effect on the QT interval” value in data set [1] is reported as “no effect on the QT interval”. In data set [2], the half-maximal inhibitory concentration (IC50) was 3.07 nM.
As for `CC(=O)N1CCC(Nc2cc(C(=O)NC[C@H](O)CN3CCc4ccccc4C3)ncn2)CC1` [Compound A, (S)-6-((1-Acetylpiperidin-4-yl)amino)-N-(3-(3,4-dihydroisoquinolin-2(1H)-yl)-2-hydroxypropyl)pyrimidine-4-carboxamide], in data set [2], half-maximal inhibition (IC50) was put at 19.5 nM.
With `CC(=O)N1CC2(CC(Nc3cc4c(cn3)C3(CC3)CN(C[C@H](O)CN3CCc5ccccc5C3)C4=O)C2)C1` [Example 2, (R)-7′-((2-acetyl-2-azaspiro[3.3]hept-6-yl)amino)-2′-(3-(3,4-dihydroisoquinolin-2(1H)-yl)-2-hydroxypropyl)-2′,3′-dihydro-1′H-spiro[cyclopropane-1,4′-[2,6]naphthyridin]-1-one], in data set [1], the “effect on the QT interval” value is “no effect on the QT interval”. The half-maximal inhibitory concentration (IC50) in data set [2] was 2.2 nM.
For `CC(=O)N1CCC(Nc2ccc3c(c2)C(=O)N(C[C@H](O)CN2CCc4ccccc4C2)CC32CC2)CC1` [Compound B, (R)-7′-((1-Acetylpiperidin-4-yl)amino)-2′-(3-(3,4-dihydroisoquinolin-2(1H)-yl)-2-hydroxypropyl)-2′,3′-dihydro-1′H-spiro[cyclopropane-1,4′-isoquinolin]-1′-one, reference compound], the “effect on the QT interval” value in data set [1] was “significant prolongation of the QT interval”. The compound also returned an IC50 in data set [2] of 4.33 nM.
